Assay results as given in the supplement of paper PMC12463676, “Small-molecule dissolution of stress granules by redox modulation benefits ALS models” (Nature Chemical Biology, 2025).

Legend:
lipoamide = compound: NC(=O)CCCCC1CCSS1 [lipoamide]; experiment: thermal stability z-score vs DMSO; higher = more thermally stabilized by treatment; conditions: HeLa, lipoamide concentration 100 µM
Method: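 Cellular thermal proteome profiling in HeLa cells. Cells were treated with 100 µM lipoamide for 1 h, with or without 1 mM arsenate for a further 1 h, then heated to ten temperatures (37-66.3 °C), and soluble protein was quantified by TMT mass spectrometry relative to 0.1% DMSO controls. The thermal stability score (sum of log2 fold changes minus the abundance score) was transformed to a z-score; mean of n = 3 experiments.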

potassium arsenate = compound: O=[As]([O-])(O)O.[K+] [potassium arsenate]; experiment: as above; conditions: HeLa; arsenate concentration 1 mM
Method: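 Cellular thermal proteome profiling in HeLa cells treated with 1 mM arsenate for 1 h (DMSO pretreatment), heated to ten temperatures (37-66.3 °C). Soluble protein was quantified by TMT mass spectrometry relative to DMSO controls; the thermal stability score was transformed to a z-score; mean of n = 3 experiments.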

[1] = arsenate co-treatment: 1 mM arsenate 1 h
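Further: each temperature applied for 3 min, abundance score taken as mean log2 fold change at the two lowest temperatures, z-score obtained by mean subtraction and division by SD.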

Chain of UniProt Q16832 (Q16832 whole entry): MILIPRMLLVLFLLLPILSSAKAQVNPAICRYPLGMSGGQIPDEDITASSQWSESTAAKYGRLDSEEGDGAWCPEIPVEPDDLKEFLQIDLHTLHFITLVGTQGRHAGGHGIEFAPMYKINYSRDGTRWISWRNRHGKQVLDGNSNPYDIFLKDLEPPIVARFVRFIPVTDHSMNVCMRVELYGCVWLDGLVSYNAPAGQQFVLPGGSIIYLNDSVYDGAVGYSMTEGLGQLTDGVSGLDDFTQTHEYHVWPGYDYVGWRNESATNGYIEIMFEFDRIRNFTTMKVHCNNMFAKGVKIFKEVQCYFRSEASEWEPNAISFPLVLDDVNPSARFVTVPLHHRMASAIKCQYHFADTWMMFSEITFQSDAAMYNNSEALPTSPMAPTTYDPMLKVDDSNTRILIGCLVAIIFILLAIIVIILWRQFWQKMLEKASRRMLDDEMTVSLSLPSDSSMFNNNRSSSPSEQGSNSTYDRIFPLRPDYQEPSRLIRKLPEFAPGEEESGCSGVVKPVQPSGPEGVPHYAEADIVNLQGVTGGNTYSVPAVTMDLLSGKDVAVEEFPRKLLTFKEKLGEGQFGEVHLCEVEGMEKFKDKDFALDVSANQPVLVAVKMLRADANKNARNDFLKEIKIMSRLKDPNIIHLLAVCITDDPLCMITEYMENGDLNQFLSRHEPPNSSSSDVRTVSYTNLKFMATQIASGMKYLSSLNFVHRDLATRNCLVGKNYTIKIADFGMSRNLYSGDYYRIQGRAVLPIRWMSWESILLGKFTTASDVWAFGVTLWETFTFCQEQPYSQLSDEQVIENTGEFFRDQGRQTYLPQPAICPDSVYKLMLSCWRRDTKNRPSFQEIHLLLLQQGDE
Chain of UniProt P20073 (P20073 whole entry): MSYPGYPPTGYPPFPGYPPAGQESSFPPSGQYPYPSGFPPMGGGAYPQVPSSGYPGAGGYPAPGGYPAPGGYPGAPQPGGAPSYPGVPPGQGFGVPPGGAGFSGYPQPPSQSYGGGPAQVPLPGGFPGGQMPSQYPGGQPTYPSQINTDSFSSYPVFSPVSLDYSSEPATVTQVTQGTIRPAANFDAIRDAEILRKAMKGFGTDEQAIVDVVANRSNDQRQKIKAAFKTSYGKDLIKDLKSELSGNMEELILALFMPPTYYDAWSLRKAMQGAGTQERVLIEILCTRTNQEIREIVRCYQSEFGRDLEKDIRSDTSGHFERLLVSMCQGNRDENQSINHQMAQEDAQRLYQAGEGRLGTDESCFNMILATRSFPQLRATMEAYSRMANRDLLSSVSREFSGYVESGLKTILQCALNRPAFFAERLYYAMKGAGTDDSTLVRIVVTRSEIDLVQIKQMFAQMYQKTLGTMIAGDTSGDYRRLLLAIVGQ
Chain of UniProt P12270 (P12270 whole entry): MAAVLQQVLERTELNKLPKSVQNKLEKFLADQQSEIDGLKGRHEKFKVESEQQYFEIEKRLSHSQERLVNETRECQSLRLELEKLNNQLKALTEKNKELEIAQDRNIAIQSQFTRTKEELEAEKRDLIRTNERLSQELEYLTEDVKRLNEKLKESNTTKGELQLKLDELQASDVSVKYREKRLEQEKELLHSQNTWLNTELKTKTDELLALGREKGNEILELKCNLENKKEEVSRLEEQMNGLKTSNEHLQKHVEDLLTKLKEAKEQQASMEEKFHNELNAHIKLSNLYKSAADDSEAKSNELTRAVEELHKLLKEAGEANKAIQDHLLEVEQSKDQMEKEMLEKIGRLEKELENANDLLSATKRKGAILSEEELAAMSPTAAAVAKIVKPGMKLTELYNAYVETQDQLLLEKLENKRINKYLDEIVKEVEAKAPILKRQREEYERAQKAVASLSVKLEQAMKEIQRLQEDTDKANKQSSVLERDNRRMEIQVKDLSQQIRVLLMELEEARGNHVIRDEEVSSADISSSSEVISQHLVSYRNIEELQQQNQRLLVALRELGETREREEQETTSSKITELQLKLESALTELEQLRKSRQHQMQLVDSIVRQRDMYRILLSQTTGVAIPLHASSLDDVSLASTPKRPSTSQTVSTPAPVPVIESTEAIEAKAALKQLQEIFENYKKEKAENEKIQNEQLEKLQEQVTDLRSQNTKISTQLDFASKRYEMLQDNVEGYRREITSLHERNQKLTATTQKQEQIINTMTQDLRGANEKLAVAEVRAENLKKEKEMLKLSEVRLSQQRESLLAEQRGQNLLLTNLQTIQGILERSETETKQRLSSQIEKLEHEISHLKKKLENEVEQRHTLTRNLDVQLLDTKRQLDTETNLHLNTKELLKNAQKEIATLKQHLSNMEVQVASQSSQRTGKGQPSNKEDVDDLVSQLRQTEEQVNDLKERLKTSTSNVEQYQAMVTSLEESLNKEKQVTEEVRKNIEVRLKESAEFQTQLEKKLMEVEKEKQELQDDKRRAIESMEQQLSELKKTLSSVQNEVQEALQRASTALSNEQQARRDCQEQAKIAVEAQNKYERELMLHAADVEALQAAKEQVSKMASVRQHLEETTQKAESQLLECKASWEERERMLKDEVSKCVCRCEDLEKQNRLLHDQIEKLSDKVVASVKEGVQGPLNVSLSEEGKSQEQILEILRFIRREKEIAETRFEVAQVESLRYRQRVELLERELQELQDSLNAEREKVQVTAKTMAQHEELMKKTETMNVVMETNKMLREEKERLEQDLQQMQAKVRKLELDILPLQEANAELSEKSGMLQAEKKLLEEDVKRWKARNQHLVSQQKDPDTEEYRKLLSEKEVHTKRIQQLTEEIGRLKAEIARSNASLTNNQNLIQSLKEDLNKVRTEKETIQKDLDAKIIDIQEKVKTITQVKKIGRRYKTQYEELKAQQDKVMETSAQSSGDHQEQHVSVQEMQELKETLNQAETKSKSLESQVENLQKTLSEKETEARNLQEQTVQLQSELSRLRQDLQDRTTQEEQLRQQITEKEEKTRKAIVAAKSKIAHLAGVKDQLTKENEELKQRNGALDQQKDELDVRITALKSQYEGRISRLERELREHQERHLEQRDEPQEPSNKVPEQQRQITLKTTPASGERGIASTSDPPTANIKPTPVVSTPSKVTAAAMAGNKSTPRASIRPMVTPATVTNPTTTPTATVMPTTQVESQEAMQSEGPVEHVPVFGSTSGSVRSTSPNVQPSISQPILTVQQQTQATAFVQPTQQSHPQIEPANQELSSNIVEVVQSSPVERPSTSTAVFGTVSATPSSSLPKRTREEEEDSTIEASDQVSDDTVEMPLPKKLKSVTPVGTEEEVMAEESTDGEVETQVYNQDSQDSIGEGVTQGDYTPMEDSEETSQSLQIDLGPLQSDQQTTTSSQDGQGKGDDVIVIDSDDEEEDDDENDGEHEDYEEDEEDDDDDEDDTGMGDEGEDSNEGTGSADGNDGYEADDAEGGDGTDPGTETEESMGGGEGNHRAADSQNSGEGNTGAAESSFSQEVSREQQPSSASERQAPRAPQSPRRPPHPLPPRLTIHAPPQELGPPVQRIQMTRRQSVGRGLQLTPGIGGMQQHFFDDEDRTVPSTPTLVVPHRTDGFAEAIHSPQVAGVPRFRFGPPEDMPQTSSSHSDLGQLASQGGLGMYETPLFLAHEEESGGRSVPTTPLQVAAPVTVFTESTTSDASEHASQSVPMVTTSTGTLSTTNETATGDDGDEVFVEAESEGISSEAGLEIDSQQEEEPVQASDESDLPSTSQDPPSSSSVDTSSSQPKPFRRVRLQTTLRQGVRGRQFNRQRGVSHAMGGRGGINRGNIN
Chain of UniProt P36969 (P36969 whole entry): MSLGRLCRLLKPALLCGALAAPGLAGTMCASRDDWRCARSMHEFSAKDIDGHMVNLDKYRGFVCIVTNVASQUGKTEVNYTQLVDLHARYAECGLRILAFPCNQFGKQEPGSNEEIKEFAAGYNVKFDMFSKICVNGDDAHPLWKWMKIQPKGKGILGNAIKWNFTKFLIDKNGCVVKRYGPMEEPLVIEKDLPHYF
Chain of UniProt Q9NXV6 (Q9NXV6 whole entry): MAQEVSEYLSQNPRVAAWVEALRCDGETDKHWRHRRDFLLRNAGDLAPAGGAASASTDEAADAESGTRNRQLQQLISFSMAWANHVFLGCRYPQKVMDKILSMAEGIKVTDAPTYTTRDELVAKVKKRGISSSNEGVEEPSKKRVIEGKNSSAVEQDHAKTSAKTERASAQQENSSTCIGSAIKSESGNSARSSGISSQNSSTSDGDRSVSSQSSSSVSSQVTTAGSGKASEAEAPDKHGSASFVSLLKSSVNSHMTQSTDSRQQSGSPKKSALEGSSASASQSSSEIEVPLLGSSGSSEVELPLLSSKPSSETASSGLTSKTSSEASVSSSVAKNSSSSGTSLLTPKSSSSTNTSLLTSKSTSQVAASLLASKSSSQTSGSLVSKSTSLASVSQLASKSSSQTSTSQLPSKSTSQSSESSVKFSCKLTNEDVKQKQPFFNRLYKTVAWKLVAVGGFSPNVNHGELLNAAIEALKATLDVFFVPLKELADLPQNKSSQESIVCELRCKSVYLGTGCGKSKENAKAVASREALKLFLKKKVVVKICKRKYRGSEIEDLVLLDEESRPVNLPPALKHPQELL
Chain of UniProt P09622 (P09622 whole entry): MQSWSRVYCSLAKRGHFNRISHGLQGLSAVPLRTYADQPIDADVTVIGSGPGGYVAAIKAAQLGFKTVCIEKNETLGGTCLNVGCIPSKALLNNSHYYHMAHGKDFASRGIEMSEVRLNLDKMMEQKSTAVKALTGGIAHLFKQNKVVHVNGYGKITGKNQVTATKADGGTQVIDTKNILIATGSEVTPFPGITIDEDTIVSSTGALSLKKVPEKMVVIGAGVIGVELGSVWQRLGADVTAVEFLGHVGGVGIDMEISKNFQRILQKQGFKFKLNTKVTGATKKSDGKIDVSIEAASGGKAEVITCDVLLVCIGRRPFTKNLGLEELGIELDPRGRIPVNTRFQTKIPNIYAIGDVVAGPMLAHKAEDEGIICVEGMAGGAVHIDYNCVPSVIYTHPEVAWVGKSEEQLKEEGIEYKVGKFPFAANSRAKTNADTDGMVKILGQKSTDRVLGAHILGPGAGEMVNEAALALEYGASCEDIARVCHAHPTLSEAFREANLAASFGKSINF

Row | Target | thermal stability z-score (lipoamide; [1]) | thermal stability z-score (lipoamide; arsenate co-treatment: none) | thermal stability z-score (potassium arsenate)
1 | PCID2 (UniProt Q5JVF3) | -0.297 | 0.217 | 0.809
2 | ADRM1 (UniProt Q16186) | 1.21 | 0.976 | 0.823
3 | DHX9 (UniProt Q08211) | 0.398 | 1.65 | -1.4
4 | PAM (UniProt P19021) | -1.15 | -1.32 | -1.17
5 | PSMB7 (UniProt Q99436) | 1.04 | 0.99 | 0.481
6 | PAIP2 (UniProt Q9BPZ3) | 0.427 | 0.233 | -1.06
7 | SSH3 (UniProt Q8TE77) | 0.153 | -0.0576 | -0.0687
8 | DDR2 (UniProt Q16832) | -0.251 | -0.189 | -0.163
9 | SLMAP (UniProt Q14BN4) | -0.467 | -0.173 | 1.45
10 | PRPF19 (UniProt Q9UMS4) | 1.23 | 0.686 | -0.692
11 | NCOA4 (UniProt Q13772) | -0.252 | 0.00243 | -0.116
12 | TRAP1 (UniProt Q12931) | -1.2 | 0.188 | -0.477
13 | CHCHD1 (UniProt Q96BP2) | 0.43 | 0.138 | -0.0935
14 | CD9 (UniProt P21926) | 1.93 | 1.62 | 0.251
15 | CAPZA2 (UniProt P47755) | -0.00372 | 0.906 | 0.697
16 | KIF5B (UniProt P33176) | 0.397 | 0.256 | 1.17
17 | ABHD14B (UniProt Q96IU4) | 1.24 | 0.828 | 0.527
18 | NOMO1 (UniProt Q15155) | -0.893 | -1.83 | 0.353

Row | Target | thermal stability z-score (lipoamide; [1]) | thermal stability z-score (lipoamide; arsenate co-treatment: none) | thermal stability z-score (potassium arsenate)
19 | TMX3 (UniProt Q96JJ7) | -0.503 | -0.791 | 1.29
20 | GPX4 (UniProt P36969) | -0.524 | -0.696 | 0.286
21 | EDIL3 (UniProt O43854) | -0.15 | -0.528 | 1.14
22 | TPR (UniProt P12270) | 2.13 | 1.1 | -2.19
23 | MTA3 (UniProt Q9BTC8) | 0.106 | 0.129 | -0.13
24 | SPAG5 (UniProt Q96R06) | -0.791 | -0.122 | -0.162
25 | PIH1D1 (UniProt Q9NWS0) | 1.07 | 0.114 | 0.538
26 | PINX1 (UniProt Q96BK5) | -0.717 | -0.225 | -2.03
27 | PEX11B (UniProt O96011) | -0.443 | -0.349 | -0.497
28 | WDR92 (UniProt Q96MX6) | -0.0904 | -0.202 | 0.368
29 | SLC35F6 (UniProt Q8N357) | -0.707 | -0.328 | -0.279
30 | DLD (UniProt P09622) | 0.662 | 1.04 | -0.681
31 | CDKN2AIP (UniProt Q9NXV6) | 0.446 | 0.454 | -0.347
32 | TCP11L1 (UniProt Q9NUJ3) | -0.328 | 0.00441 | 0.586
33 | HM13 (UniProt Q8TCT9) | 0.0446 | -0.0484 | 0.759
34 | PFDN6 (UniProt O15212) | 1.95 | 2.18 | 1.42
35 | ANXA7 (UniProt P20073) | 1.98 | 1.08 | 0.966
